Measured values as given in paper PMC11012124, “Synthesis of Novel Triazine-Based Chalcones and 8,9-dihydro-7H-pyrimido[4,5-b][1,4]diazepines as Potential Leads in the Search of Anticancer, Antibacterial and Antifungal Agents” (International Journal of Molecular Sciences, 2024).
In brackets after ≈: the same amount, converted by molar mass.

Tests used:
[1] = tested on: M. tuberculosis ATCC 27294; assay: Antitubercular broth microdilution MIC; type: cell-based; conditions: Mycobacterium tuberculosis; M. tuberculosis ATCC 27294 (H37Rv); read-out: Minimum inhibitory concentration (MIC)
K-562 = assay: cells; conditions: Homo sapiens, K562, 48 h; for GI50: K-562, 48 h; for CC50: read-out: LC50
SR = assay: cells; conditions: Homo sapiens, 48 h; for CC50: read-out: LC50
A549/ATCC = assay: cells; conditions: Homo sapiens, A549, 48 h; for CC50: read-out: LC50
HOP-92 = assay: cells; conditions: Homo sapiens, HOP-92, 48 h; for CC50: read-out: LC50
NCI-H23 = assay: cells; conditions: Homo sapiens, NCI-H23, 48 h; for CC50: read-out: LC50
NCI-H460 = assay: cells; conditions: Homo sapiens, NCI-H460, 48 h; for CC50: read-out: LC50
NCI-H522 = assay: cells; conditions: Homo sapiens, NCI-H522, 48 h; for CC50: read-out: LC50
HCC-2998 = assay: cells; conditions: Homo sapiens, HCC 2998, 48 h; for CC50: read-out: LC50
HCT-15 = assay: cells; conditions: Homo sapiens, HCT-15, 48 h; for CC50: read-out: LC50
KM12 = assay: cells; conditions: Homo sapiens, KM12, 48 h
SW-620 = assay: cells; conditions: Homo sapiens, SW-620, 48 h; for CC50: read-out: LC50
SNB-19 = assay: cells; conditions: Homo sapiens, SNB-19, 48 h; for CC50: read-out: LC50
SNB-75 = assay: cells; conditions: Homo sapiens, SNB-75, 48 h, read-out: LC50
SK-MEL-2 = assay: cells; conditions: Homo sapiens, SK-MEL-2, 48 h; for CC50: read-out: LC50
SK-MEL-28 = assay: cells; conditions: Homo sapiens, SK-MEL-28, 48 h; for CC50: read-out: LC50
SK-MEL-5 = assay: cells; conditions: Homo sapiens, SK-MEL-5, 48 h; for CC50: read-out: LC50
IGROV1 = assay: cells; conditions: Homo sapiens, IGROV-1, 48 h; for CC50: read-out: LC50
NCI/ADR-RES = assay: cells; conditions: Homo sapiens, 48 h
SK-OV-3 = assay: cells; conditions: Homo sapiens, SK-OV-3, 48 h; for CC50: read-out: LC50
786-0 = assay: cells; conditions: Homo sapiens, 786-0, 48 h; for CC50: read-out: LC50
CAKI-1 = assay: cells; conditions: Homo sapiens, CAKI-1, 48 h; for CC50: read-out: LC50
RXF 393 = assay: cells; conditions: Homo sapiens, RXF 393, 48 h; for CC50: read-out: LC50
TK-10 = assay: cells; conditions: Homo sapiens, TK-10, 48 h; for CC50: read-out: LC50
MDA-MB-468 = assay: cells; conditions: Homo sapiens, MDA-MB-468, 48 h; for CC50: read-out: LC50
A. flavus (ATCC 9170) = assay: Antifungal broth microdilution (CLSI); type: cell-based; conditions: ATCC9170; Afl: Aspergillus flavus
Description: (§1) Several of the obtained triazine derivatives were evaluated against sensitive fungal species comprising of two yeasts (Candida albicans (ATCC 10231), Cryptococcus neoformans (ATCC 32264)), three dermatophytes (Microsporum gypseum (CCC 115), Trichophyton rubrum (CCC 134-2000), Trichophyton mentagrophytes (CCC 202-2000)), and three Aspergillus fungi ((A. [NT] 26934), A. niger (ATCC 9029), and A. flavus (ATCC 9170)). […] Broth microdilution techniques were performed in 96-well microplates according to the Reference Method for Broth Dilution Antifungal Susceptibility Testing of Yeasts, document M27-A3 [86] and of Filamentous Fungi […]-A8 [87]. […] An inoculum suspension (100 μL) was added to each well (final well volume = 200 μL). One growth control well (containing medium, inoculum, and the same amount of DMSO as used for each compound) and one sterility control well (sample, medium, and sterile water instead of inoculum) were included for each fungus tested. Microtiter plates were incubated in a dark, humid chamber at 30 °C for the time necessary for each fungus. Amphotericin B, Terbinafine, Fluconazole and Itraconazole were used as a positive control. The tests were performed in triplicate.

[2] = tested on: A. fumigatus (ATCC 26934); assay: Antifungal broth microdilution (CLSI); type: cell-based; conditions: ATCC26934; Afu: Aspergillus fumigatus
Description: as §1

[3] = tested on: Cryptococcus neoformans (ATCC 32264); assay: Antifungal broth microdilution (CLSI); type: cell-based; conditions: ATCC32264; Cn: Cryptococcus neoformans
Description: as §1

[4] = tested on: Microsporum gypseum (CCC 115); assay: Antifungal broth microdilution (CLSI); type: cell-based; conditions: Nannizzia gypsea; Mg: Microsporum gypseum
Description: as §1

[5] = tested on: Trichophyton mentagrophytes (CCC 202-2000); assay: Antifungal broth microdilution (CLSI); type: cell-based; conditions: Tm: Trichophyton mentagrophytes
Description: as §1

[6] = tested on: Trichophyton rubrum (CCC 134-2000); assay: Antifungal broth microdilution (CLSI); type: cell-based; conditions: Tr: Trichophyton rubrum
Description: as §1

Q: Which results are given for `COc1cc(/C=C/C(=O)c2ccc(S(=O)(=O)NCCNc3nc(Nc4ccc(F)cc4)nc(N(C)C)n3)cc2)cc(OC)c1OC` [24d]?
A: MIC [1]: 50 µg/mL (≈ 76.7 µM); GI50 (K-562): 2.73 µM; CC50 (K-562): > 100 µM; GI50 (SR): 2.42 µM; CC50 (SR): > 100 µM; GI50 (A549/ATCC): 12.2 µM; CC50 (A549/ATCC): 78.6 µM; GI50 (HOP-92): 11.5 µM; CC50 (HOP-92): > 100 µM; GI50 (NCI-H23): 3.03 µM; CC50 (NCI-H23): 34.9 µM; GI50 (NCI-H460): 5.12 µM; CC50 (NCI-H460): 50.6 µM; GI50 (NCI-H522): 6.45 µM; CC50 (NCI-H522): 50 µM; GI50 (HCC-2998): 1.62 µM; CC50 (HCC-2998): 5.52 µM; GI50 (HCT-15): 1.8 µM; CC50 (HCT-15): 6.57 µM; GI50 (KM12): 2.07 µM; GI50 (SW-620): 1.95 µM; CC50 (SW-620): 7.43 µM; GI50 (SNB-19): 11.2 µM; CC50 (SNB-19): 48.7 µM; CC50 (SNB-75): 91.9 µM; GI50 (SK-MEL-2): 13.5 µM; CC50 (SK-MEL-2): 59.5 µM; GI50 (SK-MEL-28): 6.13 µM; CC50 (SK-MEL-28): 44.6 µM; GI50 (SK-MEL-5): 3.4 µM; CC50 (SK-MEL-5): 36.2 µM; GI50 (IGROV1): 16.1 µM; CC50 (IGROV1): 59.8 µM; GI50 (NCI/ADR-RES): 3.38 µM; CC50 (NCI/ADR-RES; read-out: LC50): 56.3 µM; GI50 (SK-OV-3): 21.8 µM; CC50 (SK-OV-3): > 100 µM; GI50 (786-0): 2.94 µM; CC50 (786-0): 51.9 µM; GI50 (CAKI-1): 5.2 µM; CC50 (CAKI-1): > 100 µM; GI50 (RXF 393): 1.45 µM; CC50 (RXF 393): 6.74 µM; GI50 (TK-10): 13.1 µM; CC50 (TK-10): > 100 µM; GI50 (MDA-MB-468): 2 µM; CC50 (MDA-MB-468): 11.5 µM

Q: `CN(C)c1nc(NCCNS(=O)(=O)c2ccc(C(=O)/C=C/c3ccc(Cl)cc3)cc2)nc(N2CCOCC2)n1` [23e] was tested. Which MIC (A. flavus (ATCC 9170)) did it give?
A: The MIC was > 250 µg/mL.

Q: And the MIC [2]?
A: Its MIC is > 250 µg/mL.

Q: What about the MIC [3] of the same compound?
A: The MIC was 250 µg/mL (≈ 437 µM).

Q: And the MIC [4]?
A: Its MIC is > 250 µg/mL.

Q: What about the MIC [5] of the same compound?
A: The MIC was > 250 µg/mL.

Q: And the MIC [6]?
A: The MIC was 125 µg/mL (≈ 218 µM).

Q: And the GI50 (K-562)?
A: Its GI50 is 3.71 µM.

Q: What about the CC50 (K-562) of the same compound?
A: The CC50 was > 100 µM.

Q: And the GI50 (SR)?
A: The GI50 was 2.52 µM.

Q: What about the CC50 (SR) of the same compound?
A: Its CC50 is > 100 µM.

Q: And the GI50 (A549/ATCC)?
A: The GI50 was 14.4 µM.

Q: What about the CC50 (A549/ATCC) of the same compound?
A: The CC50 was 56.4 µM.

Q: And the GI50 (HOP-92)?
A: The GI50 was 15.1 µM.

Q: What about the CC50 (HOP-92) of the same compound?
A: The CC50 was 67.8 µM.

Q: And the GI50 (NCI-H23)?
A: The GI50 was 15.7 µM.

Q: What about the CC50 (NCI-H23) of the same compound?
A: The CC50 was 55.6 µM.

Q: And the GI50 (NCI-H460)?
A: The GI50 was 16.8 µM.

Q: And the CC50 (NCI-H460)?
A: Its CC50 is 67.1 µM.

Q: And the GI50 (NCI-H522)?
A: Its GI50 is 14 µM.

Q: And the CC50 (NCI-H522)?
A: The CC50 was 53.3 µM.

Q: What about the GI50 (HCC-2998) of the same compound?
A: The GI50 was 16.7 µM.

Q: And the CC50 (HCC-2998)?
A: Its CC50 is 56.7 µM.

Q: And the GI50 (HCT-15)?
A: The GI50 was 2.07 µM.

Q: And the CC50 (HCT-15)?
A: Its CC50 is 9.93 µM.

Q: What about the GI50 (KM12) of the same compound?
A: The GI50 was 16.9 µM.

Q: What about the CC50 (KM12; read-out: LC50) of the same compound?
A: Its CC50 is > 100 µM.

Q: What about the GI50 (SW-620) of the same compound?
A: Its GI50 is 8.46 µM.

Q: What about the CC50 (SW-620) of the same compound?
A: The CC50 was 50.2 µM.

Q: And the GI50 (SNB-19)?
A: The GI50 was 14.2 µM.

Q: What about the CC50 (SNB-19) of the same compound?
A: The CC50 was 52.1 µM.

Q: And the GI50 (SK-MEL-2)?
A: The GI50 was 16.5 µM.

Q: What about the CC50 (SK-MEL-2) of the same compound?
A: Its CC50 is 56 µM.

Q: What about the GI50 (SK-MEL-28) of the same compound?
A: Its GI50 is 15.5 µM.

Q: And the CC50 (SK-MEL-28)?
A: The CC50 was 53.9 µM.

Q: What about the GI50 (SK-MEL-5) of the same compound?
A: The GI50 was 16.3 µM.

Q: What about the CC50 (SK-MEL-5) of the same compound?
A: Its CC50 is 55.6 µM.

Q: And the GI50 (IGROV1)?
A: Its GI50 is 3.08 µM.

Q: What about the CC50 (IGROV1) of the same compound?
A: Its CC50 is 36.8 µM.

Q: What about the GI50 (SK-OV-3) of the same compound?
A: The GI50 was 15.3 µM.

Q: What about the CC50 (SK-OV-3) of the same compound?
A: The CC50 was 59.5 µM.

Q: And the GI50 (786-0)?
A: The GI50 was 14.8 µM.

Q: And the CC50 (786-0)?
A: Its CC50 is 55.9 µM.

Q: And the GI50 (CAKI-1)?
A: The GI50 was 11.2 µM.

Q: What about the CC50 (CAKI-1) of the same compound?
A: The CC50 was 54.7 µM.

Q: What about the GI50 (RXF 393) of the same compound?
A: The GI50 was 12.8 µM.

Q: What about the CC50 (RXF 393) of the same compound?
A: The CC50 was 57.1 µM.

Q: What about the GI50 (TK-10) of the same compound?
A: Its GI50 is 15.8 µM.

Q: And the CC50 (TK-10)?
A: Its CC50 is 54.7 µM.

Q: And the GI50 (MDA-MB-468)?
A: Its GI50 is 11 µM.

Q: And the CC50 (MDA-MB-468)?
A: The CC50 was 56 µM.
